This passage reports chromatographic logP and Efficacy in % results from patent US8916703B2, “Dithiinopyridazinone derivates” (Bayer Intellectual Property GmbH, priority 2010, dated 2014).

Series [1] in a line: logP by HPLC on reversed-phase column (EEC Directive 79/831 Annex V.A8). Type of series: physicochemical. As to conditions: reversed-phase C18 HPLC column, 43° C., acidic range pH 2.7 (0.1% formic acid/acetonitrile), read-out: Log P. The method, then: The logP values reported in the preparation examples and tables above are determined in accordance with EEC Directive 79/831 Annex V.A8 by means of HPLC (High Performance Liquid Chromatography) on a reversed-phase column (C18). Temperature: 43° C. The determination with the LC-MS in the acidic range takes place at a pH of 2.7 using 0.1% aqueous formic acid and acetonitrile (containing 0.1% formic acid) as eluents; linear gradient from 10% acetonitrile to 95% acetonitrile. Calibration takes place using unbranched alkan-2-ones (having 3 to 16 carbon atoms) of which the logP values are known (logP values determined on the basis of the retention times, by linear interpolation between two successive alkanones).

The test system of series [2] is Puccinia recondita. Kind of series: Puccinia test (wheat)/protective. It counts as in vivo. As to conditions: wheat plants, protective spray, application rate 1500 ppm, evaluation 7-9 days after inoculation. From the text:
Puccinia Test (Wheat)/Protective
• Solvent: 49 parts by weight of N,N-dimethylformamide • Emulsifier: 1 part by weight of alkylaryl polyglycol ether
An appropriate preparation of active compound is produced by mixing 1 part by weight of active compound with the stated amounts of solvent and emulsifier and diluting the concentrate with water to the desired concentration. To test for protective activity, young wheat plants are sprayed with the preparation of active compound at the stated application rate. A day after the treatment, the plants are inoculated with a spore suspension of Puccinia recondita and then stand for 48 hours at 100% relative humidity and 22° C. Subsequently the plants stand at 80% relative humidity and a temperature of 20° C. After 7-9 days following inoculation, evaluation takes place. Here, 0% denotes an efficacy which corresponds to that of the control, whereas an efficacy of 100% means that no infestation is observed.

Turning to `CC(C)(C)n1ncc2c(c1=O)Sc1c(cnn(C(C)(C)C)c1=O)S2` [Compound 7, 2,8-di-tert-butyl[1,4]dithilino[2,3-d:5,6-d′]dipyridazine-1,9(2H,8H)-dione], the chromatographic logP in series [1] came out at 4.6. This compound showed an Efficacy in % in series [2] of 70%.
